By melting point is commonly meant the temperature of the solid-liquid transition. Regarding `Cc1c(O)ccc2c(-c3ccccc3F)noc12`, the melting point lay within 216 to 219 °C. In turn, `CCCc1c(OCc2ccc(C=CC(=O)OC)cc2)ccc(C(C)=O)c1O` yielded a melting point of 121 to 125 °C. To `COC(=O)N[C@H](C(=O)O)C(C)(C)C` belongs 106 to 108 °C.

In turn, `CC(C)(C)OC(=O)N1CC(O)C(NS(=O)(=O)c2ccc(Oc3ccccc3)cc2)C1` (configuration not stated) displayed a melting point of 98 to 99 °C. To `CCCCOC(=O)C(O)C1OC(n2cnc3c(N)ncnc32)C(O)C1O` (configuration not stated) belongs 167 °C; to `Cc1ccc(-c2c(-c3ccc(S(C)(=O)=O)cc3)[nH]c3ccccc23)cc1C`, 206 to 207 °C; to `COC(=O)c1cccc(-c2c(C)c(C(=O)c3ccc(N)c(C(=O)OC)c3)n3ccccc23)c1`, 232 °C. To `Cc1ccccc1Cn1c(OCc2ccccc2)noc1=O` belongs 77 to 78 °C; to `Cc1cc(Cl)ccc1N=CN(C)SN(c1ccccc1)c1ccccc1`, 78 to 79 °C; to `Cn1cncc1C(c1ccc(Cl)cc1)c1ccc2c(c1)c(-c1ccccc1)cc(=O)n2C` (configuration not stated), 96.8 °C. Consider `CC(OC(=O)NCC1(CC(=O)O)CCCCC1)OC(=O)C(C)C` (configuration not stated), for which the melting point was 63 to 64 °C. For the compound `CCCCCCCCCCCCc1ccccc1C(Sc1ncc(C(=O)O)n1C)C(O)CCC(=O)O` (configuration not stated), the melting point was in the range of 79 to 80 °C. On to `COC(=O)C1CCc2sccc2C1=O` (configuration not stated), for which the melting point fell in the range of 85 to 86 °C. As to `CC1(C)CC2(CC(C)(C)N1)NC(=O)N(CC(O)COc1ccc(Cc3ccc(OCC(O)CN4C(=O)NC5(CC(C)(C)NC(C)(C)C5)C4=O)cc3)cc1)C2=O` (configuration not stated), the melting point was in the range of 113 to 118 °C. As for `COc1ccc([C@H](Sc2ccccc2NC(C)=O)[C@@H](O)C(=O)O)cc1`, the figure is 173 to 175 °C. Consider `CNc1ccc(CCc2cc(OC)ccc2OC)cc1C(=O)OC`, for which the melting point was determined as 73 °C. As for `CCCOc1ccccc1-c1nc2cc3ncn(CC4CCCCC4)c3cc2c(=O)[nH]1`, the figure is 223 to 226 °C; as for `CCCCCCC(C)Nc1ccc2c(c1)CCN2c1ncnc2cc(OC)c(OC)cc12` (configuration not stated), 61 to 63 °C; as for `O=C(OCc1ccccc1)N1CCN2c3ccc([N+](=O)[O-])cc3OCC2C1` (configuration not stated), 138 to 140 °C. As to `O=C(N(CCCc1ccncc1)Cc1ccccc1)N(CCCc1ccccc1)C1CCCCC1`, the melting point fell in the range of 107 to 112 °C. As for `CCOC(=O)NC(=NCCCc1c[nH]cn1)NCCSCc1cccnc1`, the figure is 90 to 91 °C; as for `N#Cc1cccc(-c2cc(-c3ccccc3C(=O)O)on2)c1`, 195 to 196 °C. On to `CC(C)(ON=C(C(=O)N[C@@H]1C(=O)N[C@@H]1C(N)=O)c1csc(NC(=O)CCl)n1)C(=O)OCc1ccc([N+](=O)[O-])cc1` (relative stereo), for which the melting point fell in the range of 144 to 147 °C. As to `Fc1cccc(Cl)c1COc1cccnc1NC(=S)Nc1ccc(Cl)cc1`, the melting point fell in the range of 162 to 164 °C. To `O=S(CCC=C(F)F)NCc1ccc(Cl)cc1` (configuration not stated) belongs 37 to 38 °C; to `CC[C@H](C)[C@H](NC(=O)NCCC1CCCCC1)C(=O)N[C@H](CO)Cc1c[nH]c2ccccc12`, 182 to 184 °C; to `CCCCCCCCCCCCCCn1ccc(C(=O)OCC)c1`, 32 to 33 °C. As for `Cc1ccc(S(=O)(=O)N2[C@H](CCCc3nc(C)no3)CC[C@@H]2c2ccc(F)cc2)cc1` (racemic), the figure is 91 °C; as for `Cc1cc(-n2cnnc2)cc(C=O)c1N`, 250 to 252 °C; as for `CN1CCN(C(=O)N2CC(Oc3ccc(Br)cc3)C2)CC1`, 91 to 95 °C. To `CCCCNc1c(CO)cnc2c1cnn2CC` belongs 60 to 72 °C; to `O=[N+]([O-])c1ccc2c(c1)CC(O)c1ccccc1S2` (configuration not stated), 144 to 146 °C. Turning to `COc1ccc(Oc2ccc3c(c2)C=C(C(=O)O)C(C(F)(F)F)O3)cc1Cl` (configuration not stated), the melting point was in the range of 205 to 207 °C. Compound `COc1cc(C(C)=NN)ccc1OCCCN1CCC(c2noc3cc(F)ccc23)CC1` showed a melting point of 106 to 108 °C. As for `O=C(C1COc2ccccc2O1)N1CCNCC1` (configuration not stated), the figure is 84 to 85 °C. As for `COC(=O)c1ccc(S(C)(=O)=O)c(C)c1Cl`, the figure is 107 to 108 °C; as for `COc1ccc(Cc2nccc3c4c(ccc23)OCO4)cc1OC`, 111 °C. To `Nc1ccc2oc(-c3ccccc3)nc2c1` belongs 155 to 157 °C; to `CCC(=O)CN1C(=O)C2(COc3cc4c(cc32)OCCO4)c2ccccc21` (configuration not stated), 182 to 183 °C; to `CCOC(=O)c1ccc2c(c1)C(=O)N(C1CC(C)(C)N(C(C)=O)C(C)(C)C1)C2=O`, 119 to 121 °C. `COCc1cnc2c(NC(=O)c3c(Cl)cccc3Cl)cccc2c1N1CCNC1=O` registered a melting point of 210 to 212 °C. As for `CCOc1cc(CCCC2OC(=O)NC2=O)ccc1OCc1nc(-c2ccccc2)oc1C` (configuration not stated), the figure is 129 to 130 °C; as for `COC(=O)c1ccc(C=O)c2ncccc12`, 128 °C; as for `CC(C)(C)c1cc2c(c(C(C)(C)C)c1)OP(Cl)Oc1c(cc(C(C)(C)C)cc1C(C)(C)C)C2`, 227 to 230 °C.

In turn, `Cc1cc(C)c(-n2nnc3c(-c4ccccc4C(F)(F)F)nc(C)nc32)c(C)c1` registered a melting point of 139 °C. On to `CCCCCCCCOc1ccc(O)c2ccccc12`, for which the melting point was 73 to 74 °C. To `O=C(O)c1ccc(C#Cc2ccccc2)cc1OCc1ccccc1` belongs 125 to 127 °C; to `CCOc1cc(OCCCc2cn(-c3ccc(C(F)(F)F)cc3)nc2OCC)ccc1CCC(=O)O`, 131 to 132 °C; to `COc1cc(CCNC(=O)Cc2ccc(Br)cc2)cc(OC)c1`, 86 to 88 °C.

As for `CC(=O)OC1CCC2(C)C(CCC3C4CC(C)C(O)(C(C)=O)C4(C)CCC32F)C1` (configuration not stated), the melting point was 150 °C.

`NC(=S)Nc1ccccc1-c1ccc(F)cc1` yielded a melting point of 140 to 142 °C.

With `O=C(O)CCCCCOc1cc(-c2ccc(NC(=O)C(F)(F)F)cc2)cc(-c2ccccc2)n1`, the melting point was 178 to 180 °C. To `COc1cc2nc(N3CCOCC3)n3cnnc3c2cc1OC` belongs 216 to 218 °C; to `CSc1cccc(COCCCO)c1NC(=O)CC1c2ccccc2Oc2ccccc21`, 207 to 208 °C. To `COc1ccc(-c2cc(C(=O)Nc3cccc(F)n3)c3ccccc3n2)cc1` belongs 174 to 176 °C; to `COCCOCOc1c(C(C)(C)C)cc(C2=NC(=S)N=N2)cc1C(C)(C)C`, 187 °C. As for `CC(C)CC1C(OC2CCCCO2)CC(=O)N1C(=O)OC(C)(C)C` (configuration not stated), the figure is 81 to 83 °C.

In turn, `CC(C)(C)c1cc(=O)n(-c2c(Cl)cc(C(F)(F)F)cc2Cl)[nH]1` gave a melting point of 175 °C. Take `Cn1cc(-c2cccc(N3Cc4cc(C(C)(C)C)ccc4C3=O)c2CO)nc(Nc2cccnc2)c1=O`: the melting point lay in the range of 149 to 150 °C. To `COc1cc(OC)c2c(=O)[nH]c(-c3cc(C)nc(C)c3)nc2c1` belongs 291 to 292 °C. `CCCCc1nc2cc(Cl)c(Cl)c(C(=O)O)c2n1Cc1ccccc1Cl` displayed a melting point of 240 °C. As for `CCOC(=O)c1nc(C)cc(C#N)c1C`, the figure is 55.5 °C.

In turn, `O=c1nc(NCc2ccccc2)n2c3c1cnn3C(c1cccc(C(F)(F)F)c1)=CC2` came in with a melting point of 220 to 224 °C.

Compound `NC(=S)NCc1ccccc1Cl` showed a melting point of 120 to 122 °C. As for `O=C(O)c1ccc(OCCCCl)cn1`, the figure is 120 to 121 °C; as for `O=C(O)C1=Cc2ccc(Cl)cc2SC1C(F)(F)F` (configuration not stated), 226 to 227 °C; as for `Nc1cccc(S(=O)(=O)NCC(F)(F)F)c1`, 131 °C. To `Cc1ccc(C#CC#Cc2ccc(C)cc2)cc1` belongs 182 to 183 °C.

For the compound `Fc1cccc2c1C1=NCCN1C(Cl)=N2`, the melting point fell in the range of 281 to 285 °C. As for `Fc1ccc2c(C3CCN(CCN4CCOCC4)CC3)noc2c1`, the figure is 131 to 132 °C; as for `COc1ccc(N2CCOCC2)c2sc(-c3ncc(-c4csc5ccccc45)[nH]3)nc12`, 161 to 162 °C. To `Fc1ccc(-n2cc(C3CCN(CCN4CCNC4=S)CC3)c3ccc(Cl)cc32)cc1` belongs 184 to 186 °C.

`CC(C)(C)COc1ccc(C2=CC=CN3CCS(=O)(=O)N=C23)cc1` registered a melting point of 258 to 259 °C.

`CN1CCN(Cc2ccccc2)CC(NC(=O)c2n[nH]c3ccccc23)C1` (configuration not stated): the melting point was in the range of 192 to 194 °C.

`Cc1nnc(C(O)CCCCCCOc2ccccc2)o1` (configuration not stated) had a melting point of 50 to 52 °C. As for `N#Cc1cc(Cl)nc(NN)c1`, the figure is 208 to 210 °C; as for `CC(=O)OCCOC(=O)C1=C(C)NC(C)=C(C(=O)CS(=O)(=O)NC(C)C)C1c1cccc([N+](=O)[O-])c1` (configuration not stated), 133 to 136 °C; as for `CCCCCC[C@H](C)COC(=O)c1ccc(-c2ccc(O)cc2)cc1`, 89 °C. As for `C=CCONC(=O)n1nc(Oc2c(Cl)cc(C(F)(F)F)cc2Cl)cc1C`, the figure is 68 to 70 °C.

On to `Cc1ccc(S(=O)(=O)OCC2Cc3cccc(-c4ccc(F)cc4)c3O2)cc1` (configuration not stated), for which the melting point lay within 83 to 86 °C. To `O=C(O)C1CN(c2ccc(-c3noc(CN4C(=O)c5ccccc5C4=O)n3)cc2)C(=O)O1` (configuration not stated) belongs 130 to 135 °C; to `COC1CC(CNC(=O)Nc2ccc([N+](=O)[O-])cc2)C(OC)O1` (configuration not stated), 172 to 174 °C; to `O=C(O)c1ccc(-c2nc(-c3c(F)c(F)c(F)c(F)c3F)cs2)cc1`, 273 to 274 °C. To `O=C1NC(=O)C(Cc2ccc(OCCN3c4ccccc4Sc4ccc(C(F)(F)F)cc43)cc2)S1` (configuration not stated) belongs 64 °C; to `Cc1noc(NC(=O)N2CCN(c3cncc(-c4ccc(F)cc4F)c3)CC2)c1C`, 147 to 148 °C; to `CCCCc1nc2cccnc2n1Cc1ccc2c(Cl)c(C(=O)OC)sc2c1`, 127 to 129 °C. To `O=C(O)CCc1cccc(CNC(=O)C2Cc3ccccc3N2S(=O)(=O)c2ccc(-c3cccc(C(F)(F)F)c3)cc2)c1` (configuration not stated) belongs 135 °C.

The values are drawn from a melting point compilation (Tetko et al.; mined from patent text by program, amines drawn as free bases though some values may be those of a salt).
